The text below walks through data of patent publication US4906661A, “Esters of aryloxypropanolamine derivatives” (E. I. Du Pont de Nemours and Company, priority 1989, dated 1990).

In assay [1] the target is β2 receptors, guinea pig trachea (Cavia porcellus, UniProt Q8K4Z4). Nature of the assay: cell-based. Here is the method:
Each tissue was suspended between a fixed glass rod and a Statham Universal Transducer connected to a Beckman recorder. Atria were allowed to beat spontaneously under a loading tension of approximately 0.5 gm. Intrinsic depressant or stimulant activity was determined for each compound by progressively increasing concentrations in the tissue baths at 60-minute intervals. Tissues were not washed between increments. […] Changes in rate in response to isoproterenol, a standard β-receptor agonist, were measured in the absence and presence of test compounds. Spiral strips of guinea pig trachea were suspended under 5 gm resting tension and incubated with phentolamine, tropolone and cocaine. Active tension was generated by addition of carbachol (3.0×10^-7 M) and decreases in tension in response to isoproterenol were quantitated. Cumulative concentration-response curves were produced with isoproterenol both before and after 60-minute incubation of test compounds with atria and trachea. […] The blocking potency of test compounds was estimated by computing pA2 values (-log KB) by the method of Furchgott, the Pharmacological Differentiation of Adrenergic Receptors, Ann. […] A ratio greater than one indicates cardioselectivity. Test drugs were dissolved in distilled water and added to the bath (30 ml) in a volume of 10 or 100 μl.

For assay [2], the target named is β1 receptors, guinea pig right atria (Cavia porcellus, UniProt H0W3H1). Nature of the assay: cell-based. Here is the method: Each tissue was suspended between a fixed glass rod and a Statham Universal Transducer connected to a Beckman recorder. Atria were allowed to beat spontaneously under a loading tension of approximately 0.5 gm. Intrinsic depressant or stimulant activity was determined for each compound by progressively increasing concentrations in the tissue baths at 60-minute intervals. Tissues were not washed between increments. The maximum concentration showing little or no cardiodepressant activity was chosen for blockade experiments. Changes in rate in response to isoproterenol, a standard β-receptor agonist, were measured in the absence and presence of test compounds. Spiral strips of guinea pig trachea were suspended under 5 gm resting tension and incubated with phentolamine, tropolone and cocaine. Active tension was generated by addition of carbachol (3.0×10^-7 M) and decreases in tension in response to isoproterenol were quantitated. Cumulative concentration-response curves were produced with isoproterenol both before and after 60-minute incubation of test compounds with atria and trachea. […] The blocking potency of test compounds was estimated by computing pA2 values (-log KB) by the method of Furchgott, the Pharmacological Differentiation of Adrenergic Receptors, Ann. […] The degree of cardioselectivity was estimated from the ratio, KB trachea/KB atria (10^(pA2 atria-pA2 trachea)). A ratio greater than one indicates cardioselectivity. Test drugs were dissolved in distilled water and added to the bath (30 ml) in a volume of 10 or 100 μl.
β1 receptors, guinea pig right atria, sequence (H0W3H1 1-470): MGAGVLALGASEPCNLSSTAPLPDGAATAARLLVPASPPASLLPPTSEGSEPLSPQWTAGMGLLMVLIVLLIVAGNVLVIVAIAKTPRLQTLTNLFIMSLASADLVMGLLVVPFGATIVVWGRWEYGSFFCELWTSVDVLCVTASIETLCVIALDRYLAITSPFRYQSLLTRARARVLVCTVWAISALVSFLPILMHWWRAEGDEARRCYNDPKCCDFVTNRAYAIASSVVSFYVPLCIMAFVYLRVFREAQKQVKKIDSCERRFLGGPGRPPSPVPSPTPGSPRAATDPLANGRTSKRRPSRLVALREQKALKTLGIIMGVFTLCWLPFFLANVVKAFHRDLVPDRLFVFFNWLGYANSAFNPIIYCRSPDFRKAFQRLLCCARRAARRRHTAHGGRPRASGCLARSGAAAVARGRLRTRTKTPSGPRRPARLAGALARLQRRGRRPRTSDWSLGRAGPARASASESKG

Assay [3] deals with heart rate response to isoproterenol. Nature of the assay: Duration and potency of beta-blocking action in vivo, 3-hour infusion in anesthetized dogs, isoproterenol challenge. Set-up: species or system dog. Particulars: for Duration, time for 50% recovery from 50% blockade levels: Table IV, after infusion of drug, mean ± SEM; for Recovery Time 50%: 50% recovery from β-blockade after termination of infusion; for Recovery Time 80%: 80% recovery from β-blockade after termination of infusion; for % I, percent inhibition of heart rate response to isoproterenol: end of 3-hour infusion, isoproterenol 0.5 μg/kg. Here is the method: The duration of β-blockade was determined In vivo using pentobarbital-anesthetized dogs instrumented for measurement of heart rate using a Beckman cardiotachometer triggered electronically by a phasic aortic blood pressure signal. Both vagus nerves were served in the cervical region and the animals were mechanically ventilated. The experimental design used employed a 3-hour infusion of test compound. Bolus doses of isoproterenol (0.5 μg/kg) were used to assess the degree of β-blockade and recovery from β-blockade after […] of the infusion. The doses were spaced at 10-minute intervals and were given before, during and following the infusion of test compounds. The infusion rate was adjusted so that at the end of the 3-hour infusion period the degree of isoproterenol inhibition averaged about 50% of control. Following termination of blocker infusion, percent recovery from β-blockade was computed and the time associated with 80% recovery estimated.
^c Time in minutes for 50% recovery from 50% blockade levels after 3
Infusions of drug. Number of experiments is equal to or greater than thre
for each compound unless noted otherwise. Tabulated data are mean values
^c The betablocking activities were evaluated Invivo in a canine
model. The betablocker was infused in the animal for 3 hours with the dos
adjusted to give approximately 50%. blockage of the Isoproternolinduced
tachycardia. The infusion was then terminated and the time required for
80% recovery of blockade was recorded as duration of action of the
compound. The amount of drug infused during the 3 hours was averaged and
expressed as potency in ug/kg/min.

Assay [4] has as its system β-adrenergic receptors, guinea pig trachea vs right atria. Nature of the assay: Cardioselectivity, KB trachea/KB atria. It is filed as cell-based. Particulars: 10^(pA2 atria-pA2 trachea); ratio greater than one indicates cardioselectivity.
Description: Each tissue was suspended between a fixed glass rod and a Statham Universal Transducer connected to a Beckman recorder. Atria were allowed to beat spontaneously under a loading tension of approximately 0.5 gm. Intrinsic depressant or stimulant activity was determined for each compound by progressively increasing concentrations in the tissue baths at 60-minute intervals. Tissues were not washed between increments. The maximum concentration showing little or no cardiodepressant activity was chosen for blockade experiments. Changes in rate in response to isoproterenol, a standard β-receptor agonist, were measured in the absence and presence of test compounds. Spiral strips of guinea pig trachea were suspended under 5 gm resting tension and incubated with phentolamine, tropolone and cocaine. Active tension was generated by addition of carbachol (3.0×10^-7 M) and decreases in tension in response to isoproterenol were quantitated. Cumulative concentration-response curves were produced with isoproterenol both before and after 60-minute incubation of test compounds with atria and trachea. […] The degree of cardioselectivity was estimated from the ratio, KB trachea/KB atria (10^(pA2 atria-pA2 trachea)). A ratio greater than one indicates cardioselectivity. Test drugs were dissolved in distilled water and added to the bath (30 ml) in a volume of 10 or 100 μl.
Setting [5] is: Table IV, mean, n ≥ 2, range ≤ ± 0.2 units, read-out: pA2 Trachea (converted).
[6] abbreviates: Table VI, read-out: pA2 Atria (converted).
[7] abbreviates: Table IV, mean, n ≥ 2, range ≤ ± 0.2 units, read-out: pA2 Atria (converted).
Setting [8] is: Table I, guinea pig right atria, vs isoproterenol, -log KB, read-out: PA2 Rt. Atria (converted).
[9] abbreviates: Table I, guinea pig trachea, vs isoproterenol, -log KB, read-out: PA2 Trachea (converted).
Setting [10] is: Table IV, mean, n ≥ 2, range ≤ ± 0.2 units.
[11] abbreviates: Table V, guinea pig right atria (B1), read-out: In Vitro pA2 Atria (converted).

Values joined by “and” are separate entries in the source; they are usually repeats but may differ in a detail not shown here. Equal entries are not always repeated. Structures can show the parent of a compound that is named as a salt. Where two headings read alike, the source gives them in different places.

β2 receptors, guinea pig trachea, sequence (Q8K4Z4 whole entry): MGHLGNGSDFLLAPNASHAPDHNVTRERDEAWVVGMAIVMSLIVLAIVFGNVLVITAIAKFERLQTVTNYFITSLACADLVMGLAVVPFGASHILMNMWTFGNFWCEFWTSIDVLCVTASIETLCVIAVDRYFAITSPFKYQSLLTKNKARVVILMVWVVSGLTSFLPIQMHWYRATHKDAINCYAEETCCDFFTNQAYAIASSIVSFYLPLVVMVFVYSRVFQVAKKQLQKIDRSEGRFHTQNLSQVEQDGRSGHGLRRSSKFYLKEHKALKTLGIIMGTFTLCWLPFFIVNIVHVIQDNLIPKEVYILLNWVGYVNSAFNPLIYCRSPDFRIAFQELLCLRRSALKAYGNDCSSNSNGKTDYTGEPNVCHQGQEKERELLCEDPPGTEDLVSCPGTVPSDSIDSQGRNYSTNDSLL

In the case of `CCOC(=O)CCc1ccc(OCC(O)CNC(C)(C)CNC(=O)C2CCCCC2)cc1` (stereo not shown) [No. 11 (Table IV)], in assay [1] (setting [5]), the Kb was 398 nM.

In the case of `CCOC(=O)CCc1nsnc1OCC(O)CNC(C)(C)CNC(N)=O` (stereo not shown) [No. 2 (Table VI)], in assay [2] (setting [6]), the Kb is 39.8 nM.

For `CCOC(=O)CCc1nsnc1OCC(O)CNCCNS(=O)(=O)N1CCOCC1` (stereo not shown) [No. 7 (Table VI)], the Kb in assay [2] (setting [6]) was 794 nM.

As for `CCOC(=O)CCc1ccc(OCC(O)CNC(C)(C)CNC(=O)N2CCOCC2)cc1` (stereo not shown) [No. 19 (Table IV)], the Kb is 15.8 nM in assay [2] (setting [7]) and 200 nM in assay [1] (setting [5]). The “Duration, time for 50% recovery from 50% blockade levels” value (from here on “Duration, time for 50% recovery”) in assay [3] was determined as 21 ± 4 min.

`COC(=O)c1ccccc1OCC(O)CNCCNS(=O)(=O)c1ccc(C)cc1.O=C(O)C(=O)O` (stereo not shown) [Example VII, Methyl 2-[2-Hydroxy-3-[N-[2-[N-(4-methylphenylsulfonyl)amino]ethyl]amino]propoxy]benzoate Oxalate]: the Kb in assay [2] (setting [8]) is 158 nM; in assay [1] (setting [9]), 79.4 nM. For the same compound, in assay [4], the “Cardioselectivity KB (Trachea)/KB (Atria)” value was 2.

On to `CCOC(=O)CCc1nsnc1OCC(O)CNC(C)(C)CNC(C)=O` (stereo not shown) [No. 5 (Table VI)], for which, in assay [2] (setting [6]), the Kb was 79.4 nM.

Regarding `CCOC(=O)CCc1ccc(OCC(O)CNCCNS(=O)(=O)N(C)C)cc1` (stereo not shown) [No. 16 (Table IV)], the “pA2 Atria” value in assay [2] (setting [10]) is reported as 5.8. Moreover, the “pA2 Trachea” value in assay [1] (setting [10]) was found to be 5.7.

On to `COC(=O)c1ccccc1OCC(O)CNC(C)(C)CNC(=O)N1CCOCC1` (stereo not shown) [Example VI, Methyl 2-[2-Hydroxy-3-[N-[1,1-dimethyl-2-(1-morpholinocarbonylamino)ethyl]amino]propoxy]benzoate Oxalate], for which the Kb in assay [2] (setting [8]) is less than 1 nM. Further, in assay [3] (Table II), the “Recovery Time 50%” value is on record as more than 60 min; the “Recovery Time 80%” value was more than 60 min; the “% I, percent inhibition of heart rate response to isoproterenol” value (from here on “% I, percent inhibition”) is 93% and 89%.

Consider `CCOC(=O)CCc1nsnc1OCC(O)CNC(C)CNC(C)=O` (stereo not shown) [No. 4 (Table VI)], for which, in assay [2] (setting [6]), the Kb was 100 nM.

In the case of `CCOC(=O)c1ccccc1OCC(O)CNCCNS(=O)(=O)c1ccc(C)cc1` (stereo not shown) [Example 5], the Kb is 158 nM in assay [2] (setting [7]) and 25.1 nM in assay [1] (setting [5]).

Take `CCOC(=O)c1ccccc1OCC(O)CNCCNC(=O)C(C)C` (stereo not shown) [Example 1]: the Kb was 3.16 nM in assay [2] (setting [7]) and 20 nM in assay [1] (setting [5]).

`CCOC(=O)CCc1ccc(OCC(O)CNCCNC(C)=O)cc1` (stereo not shown) [No. 9 (Table IV)]: the results for the Kb in assay [2] (setting [7]) and in assay [1] (setting [5]) were 501 nM and 316 nM, respectively. The “Duration, time for 50% recovery” value in assay [3] was found to be 10 ± 4 min.

As for `CCOC(=O)CCc1nsnc1OCC(O)CNCCNC(=O)C(C)C` (stereo not shown) [No. 1 (Table V)], the Kb in assay [2] (setting [11]) was 100 nM.

In the case of `COC(=O)c1ccccc1OCC(O)CNC(C)(C)CNS(=O)(=O)c1ccccc1` (stereo not shown) [VIII, Methyl 2-[2-Hydroxy-3-[N-[1,1-dimethyl-2-(phenylsulfonylamino)ethyl]amino]proxy]benzoate Oxalate], in assay [1] (setting [9]), the Kb is 1.58 nM. Moreover, in assay [3] (Table II), the “Recovery Time 50%” value came out at 26 ± 6 min; the “Recovery Time 80%” value is listed as more than 60 min; the “% I, percent inhibition” value amounted to 74%.

For `CCOC(=O)CCc1nsnc1OCC(O)CNCCNC(=O)Cc1ccccc1` (stereo not shown) [No. 6 (Table VI)], the Kb in assay [2] (setting [6]) was 79.4 nM.

For `CCOC(=O)CCc1ccc(OCC(O)CNC(C)(C)CNC(N)=O)cc1` (stereo not shown) [No. 13 (Table IV)], the Kb is 1000 nM in assay [2] (setting [7]) and 398 nM in assay [1] (setting [5]). In addition, in assay [3], the “Duration, time for 50% recovery” value was 12 ± 4 min.

On to `CC(C)NCC(O)COc1cccc2ccccc12` (stereo not shown) [Propranolol, reference compound], for which, in assay [3] (Table II, 3-hour infusion, dog), the Potency is on record as 0.225 mg/kg/180 min. In assay [3] (Table II), the “Recovery Time 50%” value is recorded as more than 60 min; the “Recovery Time 80%” value is listed as more than 60 min; the “% I, percent inhibition” value came to 67 ± 6%. The “Duration, time for 50% recovery” value in assay [3] was more than 60 min.

Turning to `CCOC(=O)CCc1ccccc1OCC(O)CNCCNC(=O)C(C)C` (stereo not shown) [Example 6], the Kb in assay [2] (setting [7]) was 63.1 nM; in assay [1] (setting [5]), 20 nM.

Turning to `CCOC(=O)NCC(C)(C)NCC(O)COc1ccccc1C(=O)OCC` (stereo not shown) [Example 2], the Kb was 5.01 nM in assay [2] (setting [7]) and 10 nM in assay [1] (setting [5]).

As for `CCOC(=O)CCc1ccc(OCC(O)CNC(C)(C)CNS(=O)(=O)N(C)C)cc1` (stereo not shown) [No. 15 (Table IV)], in assay [2] (setting [10]), the “pA2 Atria” value was found to be 5.8. For the same compound, the values for the Kb in assay [2] (setting [7]) and in assay [1] (setting [5]) were 1580 nM and 316 nM, respectively. The “pA2 Trachea” value in assay [1] (setting [10]) is recorded as 6.5.

As for `CCOC(=O)c1ccccc1OCC(O)CNCCNS(=O)(=O)N(C)C` (stereo not shown) [Example 4], the Kb in assay [2] (setting [7]) was 39.8 nM; in assay [1] (setting [5]), 20 nM.

As to `CCOC(=O)CCc1ccc(OCC(O)CNC(C)(C)CNC(=O)OCC)cc1` (stereo not shown) [No. 14 (Table IV)], the results for the Kb in assay [2] (setting [7]) and in assay [1] (setting [5]) were 794 nM and 200 nM, respectively.

Regarding `CC(C)(C)NC[C@H](O)COc1nsnc1N1CCOCC1` [Timolol, reference compound], the “Duration, time for 50% recovery” value in assay [3] is more than 60 min.

As to `CCOC(=O)CCc1ccc(OCC(O)CNCCNC(=O)C(C)C)cc1` (stereo not shown) [No. 10 (Table IV)], the Kb in assay [2] (setting [7]) was 794 nM; in assay [1] (setting [5]), 398 nM. The “Duration, time for 50% recovery” value in assay [3] turned out to be 6 ± 3 min.

Take `CCOC(=O)CCc1ccc(OCC(O)CNCCNS(=O)(=O)c2ccc(C)cc2)cc1` (stereo not shown) [No. 17 (Table IV)]: the Kb was 1000 nM in assay [2] (setting [7]) and 6310 nM in assay [1] (setting [5]).

For the compound `CCOC(=O)CCc1ccc(OCC(O)CNCCNC(=O)Cc2ccccc2)cc1` (stereo not shown) [No. 12 (Table IV)], the Kb was 31.6 nM in assay [2] (setting [7]) and 1260 nM in assay [1] (setting [5]). The “Duration, time for 50% recovery” value in assay [3] worked out at 6 ± 4 min.

For `CCOC(=O)CCc1nsnc1OCC(O)CNC(C)(C)CNC(=O)OCC` (stereo not shown) [No. 1 (Table VI)], the Kb in assay [2] (setting [6]) was 63.1 nM.

For `CCOC(=O)CCc1nsnc1OCC(O)CNCCNC(C)=O` (stereo not shown) [No. 3 (Table VI)], in assay [2] (setting [6]), the Kb is 501 nM.

With `CCOC(=O)CCc1nsnc1OCC(O)CNC(C)(C)CNC(=O)C(C)C` (stereo not shown) [No. 2 (Table V)], the Kb in assay [2] (setting [11]) is 6.31 nM.

As to `CCOC(=O)CCc1ccc(OCC(O)CNC(C)(C)CNS(=O)(=O)c2ccccc2)cc1` (stereo not shown) [No. 18 (Table IV)], the Kb was 501 nM in assay [2] (setting [7]) and 251 nM in assay [1] (setting [5]).
